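Cultured in 96-well plates, cells were exposed to test compound for 48 hours across five concentrations. GI50 is the concentration that inhibits growth by half. At the TGI there is no net growth.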
How the values were obtained:
Assay in all cases: NCI tumour cell line growth inhibition, 48 h
786-0 renal = system: 786-0 renal
A498 renal = system: A498 renal
ACHN renal = system: ACHN renal
BT-549 breast = system: BT-549 breast
CAKI-1 renal = system: CAKI-1 renal
COLO 205 colon = system: COLO 205 colon
DU-145 prostate = system: DU-145 prostate
EKVX NSCLC = system: EKVX NSCLC
HCT-116 colon = system: HCT-116 colon
HOP-62 NSCLC = system: HOP-62 NSCLC
HOP-92 NSCLC = system: HOP-92 NSCLC
HS 578T breast = system: HS 578T breast
IGROV1 ovarian = system: IGROV1 ovarian
LOX IMVI melanoma = system: LOX IMVI melanoma
M14 melanoma = system: M14 melanoma
MDA-MB-435 = system: MDA-MB-435
NCI-H226 lung = system: NCI-H226 lung
NCI-H460 lung = system: NCI-H460 lung
NCI-H522 lung = system: NCI-H522 lung
NCI/ADR-RES ovarian = system: NCI/ADR-RES ovarian
OVCAR-4 ovarian = system: OVCAR-4 ovarian
OVCAR-5 ovarian = system: OVCAR-5 ovarian
OVCAR-8 ovarian = system: OVCAR-8 ovarian
PC-3 prostate = system: PC-3 prostate
RPMI-8226 leukemia = system: RPMI-8226 leukemia
RXF 393 renal = system: RXF 393 renal
SF-268 CNS = system: SF-268 CNS
SF-295 CNS = system: SF-295 CNS
SF-539 CNS = system: SF-539 CNS
SK-MEL-2 melanoma = system: SK-MEL-2 melanoma
SK-MEL-28 melanoma = system: SK-MEL-28 melanoma
SK-MEL-5 melanoma = system: SK-MEL-5 melanoma
SK-OV-3 ovarian = system: SK-OV-3 ovarian
SN12C renal = system: SN12C renal
SNB-19 CNS = system: SNB-19 CNS
SNB-75 CNS = system: SNB-75 CNS
SW-620 colon = system: SW-620 colon
T-47D breast = system: T-47D breast
TK-10 renal = system: TK-10 renal
UACC-257 melanoma = system: UACC-257 melanoma
UACC-62 melanoma = system: UACC-62 melanoma
UO-31 renal = system: UO-31 renal
A549 NSCLC = system: A549 NSCLC
CCRF-CEM leukemia = system: CCRF-CEM leukemia
HCC-2998 colon = system: HCC-2998 colon
HCT-15 colon = system: HCT-15 colon
HL-60(TB) leukemia = system: HL-60(TB) leukemia
HT29 colon = system: HT29 colon
K-562 leukemia = system: K-562 leukemia
KM12 colon = system: KM12 colon
MALME-3M melanoma = system: MALME-3M melanoma
MCF7 breast = system: MCF7 breast
MDA-MB-231 breast = system: MDA-MB-231 breast
MOLT-4 leukemia = system: MOLT-4 leukemia
NCI-H23 lung = system: NCI-H23 lung
SR leukemia = system: SR leukemia
U251 CNS = system: U251 CNS

## OC1CCN(CCCOc2c3ccccc3nc3c2oc2ccc(Cl)cc23)CC1
786-0 renal
  GI50: 1.08 µM
  TGI: 3.61 µM
A498 renal
  GI50: 2.53 µM
  TGI: 7.59 µM
ACHN renal
  GI50: 0.534 µM
  TGI: 10.3 µM
BT-549 breast
  GI50: 3.04 µM
  TGI: 10.1 µM
CAKI-1 renal
  GI50: 0.71 µM
  TGI: 2.29 µM
COLO 205 colon
  GI50: 0.755 µM
  TGI: 2.21 µM
DU-145 prostate
  GI50: 1.06 µM
  TGI: 3.57 µM
EKVX NSCLC
  GI50: 2.41 µM
  TGI: 13.2 µM
HCT-116 colon
  GI50: 0.414 µM
  TGI: 2.36 µM
HOP-62 NSCLC
  GI50: 1.74 µM
  TGI: 7.57 µM
HOP-92 NSCLC
  GI50: 0.713 µM
  TGI: 5.04 µM
HS 578T breast
  GI50: 2.28 µM
  TGI: 13.4 µM
IGROV1 ovarian
  GI50: 1.25 µM
  TGI: 6.28 µM
LOX IMVI melanoma
  GI50: 0.372 µM
  TGI: 1.52 µM
M14 melanoma
  GI50: 1.45 µM
  TGI: 3.69 µM
MDA-MB-435
  GI50: 1.23 µM
  TGI: 2.56 µM
NCI-H226 lung
  GI50: 1.72 µM
  TGI: 3.75 µM
NCI-H460 lung
  GI50: 0.44 µM
  TGI: 1.85 µM
NCI-H522 lung
  GI50: 1.11 µM
  TGI: 2.73 µM
NCI/ADR-RES ovarian
  GI50: 0.579 µM
  TGI: 4.91 µM
OVCAR-4 ovarian
  GI50: 1.23 µM
  TGI: 3.66 µM
OVCAR-5 ovarian
  GI50: 1.71 µM
  TGI: 6.04 µM
OVCAR-8 ovarian
  GI50: 0.991 µM
  TGI: 11.9 µM
PC-3 prostate
  GI50: 1.28 µM
  TGI: 4.04 µM
RPMI-8226 leukemia
  GI50: 1.33 µM
  TGI: 4.03 µM
RXF 393 renal
  GI50: 1.02 µM
  TGI: 2.31 µM
SF-268 CNS
  GI50: 1.08 µM
  TGI: 10 µM
SF-295 CNS
  GI50: 1.49 µM
  TGI: 6.45 µM
SF-539 CNS
  GI50: 1.07 µM
  TGI: 2.3 µM
SK-MEL-2 melanoma
  GI50: 2.45 µM
  TGI: 5.99 µM
SK-MEL-28 melanoma
  GI50: 1.64 µM
  TGI: 3.1 µM
SK-MEL-5 melanoma
  GI50: 1.78 µM
  TGI: 3.25 µM
SK-OV-3 ovarian
  GI50: 2.42 µM
  TGI: 7.07 µM
SN12C renal
  GI50: 0.883 µM
  TGI: 17.2 µM
SNB-19 CNS
  GI50: 1.4 µM
  TGI: 18.2 µM
SNB-75 CNS
  GI50: 1.97 µM
  TGI: 10.9 µM
SW-620 colon
  GI50: 0.444 µM
  TGI: 2.09 µM
T-47D breast
  GI50: 3.54 µM
  TGI: 20.7 µM
TK-10 renal
  GI50: 2.75 µM
  TGI: 18.3 µM
UACC-257 melanoma
  GI50: 1.75 µM
  TGI: 3.53 µM
UACC-62 melanoma
  GI50: 1.99 µM
  TGI: 4.82 µM
UO-31 renal
  GI50: 1.23 µM
  TGI: 3.29 µM

## NS(=O)(=O)c1ccc(Nc2nc(N/N=C/c3ccccn3)nc(Nc3ccccc3)n2)cc1
786-0 renal
  GI50: 1.06 µM
  TGI: > 100 µM
A498 renal
  GI50: 1.57 µM
  TGI: 3.18 µM
A549 NSCLC
  GI50: 2.29 µM
  TGI: 5.36 µM
ACHN renal
  GI50: 1.96 µM
  TGI: 5.47 µM
BT-549 breast
  GI50: 0.898 µM
  TGI: 6.92 µM
CAKI-1 renal
  GI50: 0.701 µM
  TGI: 4.89 µM
CCRF-CEM leukemia
  GI50: 0.395 µM
  TGI: > 100 µM
COLO 205 colon
  GI50: 0.523 µM
  TGI: 1.95 µM
DU-145 prostate
  GI50: 0.855 µM
  TGI: 4.9 µM
EKVX NSCLC
  GI50: 1.02 µM
  TGI: 5.3 µM
HCC-2998 colon
  GI50: 0.703 µM
  TGI: 3.48 µM
HCT-116 colon
  GI50: 0.395 µM
  TGI: > 100 µM
HCT-15 colon
  GI50: 1.74 µM
  TGI: > 100 µM
HL-60(TB) leukemia
  GI50: 0.709 µM
  TGI: > 28.9 µM
HOP-62 NSCLC
  GI50: 0.511 µM
  TGI: 4.65 µM
HOP-92 NSCLC
  GI50: 0.853 µM
  TGI: 4.82 µM
HS 578T breast
  GI50: 1.67 µM
  TGI: 5.97 µM
HT29 colon
  GI50: 1.79 µM
  TGI: 5.93 µM
IGROV1 ovarian
  GI50: 1.02 µM
  TGI: 5.11 µM
K-562 leukemia
  GI50: 0.433 µM
  TGI: > 100 µM
KM12 colon
  GI50: 2.19 µM
  TGI: 5.14 µM
LOX IMVI melanoma
  GI50: 0.657 µM
  TGI: 3.48 µM
M14 melanoma
  GI50: 1.09 µM
  TGI: 2.48 µM
MALME-3M melanoma
  GI50: 1 µM
  TGI: 2.51 µM
MCF7 breast
  GI50: 1.3 µM
  TGI: 3.24 µM
MDA-MB-231 breast
  GI50: 0.62 µM
  TGI: 7.06 µM
MDA-MB-435
  GI50: 0.917 µM
  TGI: 2.39 µM
MOLT-4 leukemia
  GI50: 0.495 µM
  TGI: > 39.7 µM
NCI-H226 lung
  GI50: 1.07 µM
  TGI: 5.97 µM
NCI-H23 lung
  GI50: 1.51 µM
  TGI: 4.43 µM
NCI-H460 lung
  GI50: 2.43 µM
  TGI: 6.63 µM
NCI-H522 lung
  GI50: 0.431 µM
  TGI: 3.42 µM
NCI/ADR-RES ovarian
  GI50: 3.08 µM
  TGI: > 100 µM
OVCAR-4 ovarian
  GI50: 0.46 µM
  TGI: 2.59 µM
OVCAR-5 ovarian
  GI50: 1.72 µM
  TGI: 6.61 µM
OVCAR-8 ovarian
  GI50: 0.498 µM
  TGI: > 100 µM
PC-3 prostate
  GI50: 0.665 µM
  TGI: > 100 µM
RPMI-8226 leukemia
  GI50: 2.4 µM
  TGI: 6.01 µM
RXF 393 renal
  GI50: 1.24 µM
  TGI: 2.91 µM
SF-268 CNS
  GI50: 0.492 µM
  TGI: 4.23 µM
SF-295 CNS
  GI50: 1.72 µM
  TGI: 7.1 µM
SF-539 CNS
  GI50: 0.683 µM
  TGI: 2.53 µM
SK-MEL-2 melanoma
  GI50: 1.28 µM
  TGI: 2.67 µM
SK-MEL-28 melanoma
  GI50: 0.809 µM
  TGI: 2.3 µM
SK-MEL-5 melanoma
  GI50: 1.02 µM
  TGI: 2.34 µM
SK-OV-3 ovarian
  GI50: 0.773 µM
  TGI: 3.92 µM
SN12C renal
  GI50: 1.29 µM
  TGI: 6.13 µM
SNB-19 CNS
  GI50: 0.947 µM
  TGI: > 27.4 µM
SNB-75 CNS
  GI50: 1.21 µM
  TGI: 2.63 µM
SR leukemia
  GI50: 0.342 µM
  TGI: > 100 µM
SW-620 colon
  GI50: 0.786 µM
  TGI: > 100 µM
T-47D breast
  GI50: 0.346 µM
  TGI: 2.73 µM
TK-10 renal
  GI50: 1.1 µM
  TGI: 5.26 µM
U251 CNS
  GI50: 0.514 µM
  TGI: > 100 µM
UACC-257 melanoma
  GI50: 2.14 µM
  TGI: 5.39 µM
UACC-62 melanoma
  GI50: 0.788 µM
  TGI: 2.31 µM
UO-31 renal
  GI50: 1.68 µM
  TGI: 4.91 µM

— PubChem BioAssay (NCI)
